Earlier results in US8877698B2, “Method and composition for disinfecting hard surfaces” (priority 2001, dated 2014).

Test system: poliovirus

CCO [ethanol]
minimum concentration required to inactivate poliovirus: 70% | virucidal action against poliovirus: little virucidal action
